Converted amounts (≈) assume the structure as drawn. Square brackets hold non-standard residues; d marks the D form. Peptide text beside a SMILES is read from it. Orn = NCCC[C@H](N)C(=O)O
How the values were obtained:
[1] = test system: P. aeruginosa 19660 (Xen5 luciferase); assay: Bioluminescent time-kill assay; format: cell-based, Pseudomonas aeruginosa; settings: 8 μg/mL; RP553 at 60 min; bioluminescence
From the text: (§1) Fungal and bacterial strains were obtained from American Type Culture Collection (ATCC, Manassas, VA, USA) or the clinical isolate collection at Trideum Biosciences (Frederick, MD, USA) and are presented in Table 1 and Table 2, respectively. Bioluminescence strains of P. aeruginosa 19660, transfected with the Xen5 luciferase gene, and S. aureus ATCC R 49525TM (Wright), transfected with the Xen36 luciferase gene, were obtained from Perkin Elmer (Waltham, MA, USA).
(§2) Real-time killing of bacterial cells, P. aeruginosa or S. aureus, and mammalian cytotoxicity to assess dAMP off-target toxicity was evaluated using bioluminescent cells. The L929 fibroblast cells (ATCC, Manassas, VA, USA) were made bioluminescent by transfection with a luciferase gene. Cells (1 × 10^4 cells, 100 μL) were plated in 96-well black-walled plates and the candidate dAMPs were 2-fold serially diluted from specified concentrations in growth medium supplemented with 150 μg/mL D-luciferin. Each concentration was performed in triplicate, with the final volume being 200 μL. Imaging was performed at select times after the addition of the dAMP, and compared to concurrently run vehicle-control, using an IVIS Lumina imaging system (Caliper Life Sciences, Inc., Hopkinton, MA, USA). For imaging, the 96-well plate was positioned on the stage (12.5-cm field of view), with an open emission filter, binning of 4, and f-stop 1 and a 1-min exposure time. Monitoring bioluminescence allows assessment of the kinetics of cellular viability as there is a tight correlation between the bioluminescent signal and cell viability. Data analysis was performed using the Living Image software program (version 4.3, Caliper Life Sciences, Inc., Hopkinton, MA, USA).
(§3) Figure 3 RP553, RP556, RP557 rapidly destroy P. aeruginosa and S. aureus. The bioluminescence of viable P. aeruginosa 19,660 and S. aureus 49,525 cells was quantitated in real time with an IVIS Lumina bioimaging system. Data represent the mean ± SE of triplicate replicates from two independent experiments. For some points, the error bars are shorter than the height of the symbols.

[2] = test system: S. aureus 49525 (Xen36 luciferase); format: cell-based, Staphylococcus aureus; settings: 8 μg/mL, 60 min incubation, bioluminescence, triplicates from two independent experiments
From the text: as §1, §2, §3

[3] = test system: A. baumannii ATCC 17978; format: cell-based, Acinetobacter baumannii; settings: ATCC 17978, 24 h
Experimental: (§4) Assays were performed by Trideum Biosciences (Frederick, MD, USA). Isolates were thawed from −80 °C storage and sub-cultured on trypticase soy agar plates at 37 °C prior to experimentation. A single colony was aseptically picked from the agar plate and released in 30 mL trypticase soy broth and incubated overnight at 37 °C incubator. Following which the bacterial culture was diluted to approximately 10^6 colony forming units (CFU)/mL using 2X cation adjusted Mueller–Hinton broth and added to the dAMP solutions (0, 2, 4, 8, 16, 32, 64, and 128 μg/mL) which had been formulated in water at 256 μg/mL and then serially diluted in media on 96-well pates. For fungal evaluation, potato dextrose broth and potato dextrose agar plates were used. The treated cultures were then incubated for 24 h at 37 °C and pathogen growth was measured by absorbance at 600 nm. Four replicas were included for each dAMP concentration. Each MIC was assigned to the lowest test agent concentration resulting in at least three out of four wells showing no growth based on an optical density (OD) reading of <0.1.

[4] = test system: A. baumannii 6043; format: cell-based, Acinetobacter baumannii; settings: 6043, 24 h
Experimental: as §4

[5] = test system: A. baumannii 6838; format: cell-based, Acinetobacter baumannii; settings: 6838, 24 h
Experimental: as §4

[6] = test system: K. pneumonia 6069; format: cell-based, Klebsiella pneumoniae; settings: 24 h
Experimental: as §4

[7] = test system: K. pneumonia ATCC 10031; format: cell-based, Klebsiella pneumoniae; settings: ATCC 10031, 24 h
Experimental: as §4

[8] = test system: P. aeruginosa ATCC 19660; format: cell-based, Pseudomonas aeruginosa; settings: ATCC 19660, 24 h
Experimental: as §4

[9] = test system: P. aeruginosa 6186; format: cell-based, Pseudomonas aeruginosa; settings: 6186, 24 h
Experimental: as §4

[10] = test system: P. aeruginosa ATCC 27853; format: cell-based, Pseudomonas aeruginosa; settings: ATCC 27853, 24 h
Experimental: as §4

[11] = test system: MRSA ATCC 33592; format: cell-based, Staphylococcus aureus; settings: ATCC 33592, 24 h
Experimental: as §4

[12] = test system: MRSA 6313; format: cell-based, Staphylococcus aureus; settings: 6313, 24 h
Experimental: as §4

[13] = test system: MRSA 6381; format: cell-based, Staphylococcus aureus; settings: 6381, 24 h
Experimental: as §4

[14] = test system: S. aureus B-767; format: cell-based, Staphylococcus aureus; settings: B-767, 24 h
Experimental: as §4

[15] = test system: S. aureus 6061; format: cell-based, Staphylococcus aureus; settings: 6061, 24 h
Experimental: as §4

[16] = test system: Candida parapsilosis Y-1763; format: cell-based; settings: Y-1763, 24 h
Experimental: as §4

[17] = test system: Aspergillus fumigatus 9651; format: cell-based; settings: 9651, 24 h
Experimental: as §4

[18] = test system: S. epidermis ATCC 51625; format: cell-based; settings: ATCC 51625, 24 h
Experimental: as §4

[19] = test system: E. cloacae 6053; format: cell-based; settings: 6053, 24 h
Experimental: as §4

[20] = test system: Candida albicans Y-326; format: cell-based; settings: Y-326, 24 h
Experimental: as §4

[21] = test system: Aspergillus flavus MYA-3651; format: cell-based; settings: 24 h
Experimental: as §4

[22] = test system: Candida krusei Y-27825; format: cell-based; settings: Y-27825, 24 h
Experimental: as §4

[23] = test system: Candida krusei Y-27803; format: cell-based; settings: Y-27803, 24 h
Experimental: as §4

[24] = test system: Absidia corymbifera NRRL 6251; format: cell-based; settings: NRRL 6251, 24 h
Experimental: as §4

[25] = test system: Mucor circinelloides NRRL 3631; format: cell-based; settings: NRRL 3631, 24 h
Experimental: as §4

[26] = test system: E. cloacae 6054; format: cell-based; settings: 6054, 24 h
Experimental: as §4

[27] = test system: Fusarium solani NRRL 28548; format: cell-based; settings: NRRL 28548, 24 h
Experimental: as §4

[28] = test system: Candida parapsilosis Y-1761; format: cell-based; settings: Y-1761, 24 h
Experimental: as §4

[29] = test system: Aspergillus flavus MYA-1004; format: cell-based; settings: 24 h
Experimental: as §4

[30] = test system: Candida albicans Y-6359; format: cell-based; settings: Y-6359, 24 h
Experimental: as §4

[31] = test system: Aspergillus fumigatus 9648; format: cell-based; settings: 9648, 24 h
Experimental: as §4

[32] = test system: vulvovaginal candidiasis infection; settings: rodent vulvovaginal candidiasis, after three days of daily treatment; cited from earlier work
From the text: The dAMPs RP504, RP554 and RP557 were thus tested for their ability to treat a rodent vulvovaginal candidiasis infection. […] A daily dose with a 2% concentration lowered the CFU/sample by more than 4 logs compared to the con ...

| Structure (SMILES) | MIC against A. baumannii ATCC 17978 [3] [µg/mL] | MIC against A. baumannii 6043 [4] [µg/mL] | MIC against A. baumannii 6838 [5] [µg/mL] | MIC against K. pneumonia 6069 [6] [µg/mL] | MIC against K. pneumonia ATCC 10031 [7] [µg/mL] | MIC against P. aeruginosa ATCC 19660 [8] [µg/mL] | MIC against P. aeruginosa 6186 [9] [µg/mL] | MIC against P. aeruginosa ATCC 27853 [10] [µg/mL] | MIC against MRSA ATCC 33592 [11] [µg/mL] | MIC against MRSA 6313 [12] [µg/mL] | MIC against MRSA 6381 [13] [µg/mL] | MIC against S. aureus B-767 [14] [µg/mL] | MIC against S. aureus 6061 [15] [µg/mL] | MIC against Candida parapsilosis Y-1763 [16] [µg/mL] | MIC against Aspergillus fumigatus 9651 [17] [µg/mL] | MIC against S. epidermis ATCC 51625 [18] [µg/mL] | MIC against E. cloacae 6053 [19] [µg/mL] | MIC against Candida albicans Y-326 [20] [µg/mL] | MIC against Aspergillus flavus MYA-3651 [21] [µg/mL] | MIC against Candida krusei Y-27825 [22] [µg/mL] | other results |
| --- | --- | --- | --- | --- | --- | --- | --- | --- | --- | --- | --- | --- | --- | --- | --- | --- | --- | --- | --- | --- | --- |
| CC[C@H](C)[C@H](NC(=O)[C@H](CCCCN)NC(=O)[C@H](CC(C)C)NC(=O)[C@H](CCCN)NC(=O)[C@H](CC(C)C)NC(=O)[C@H](CCCNC(=N)N)NC(=O)[C@H](C)NC(=O)[C@H](CCCNC(=N)N)NC(=O)[C@@H](NC(=O)[C@H](CCCN)NC(=O)[C@H](Cc1ccccc1)NC(=O)[C@H](CCCNC(=N)N)NC(=O)[C@H](C)NC(=O)[C@H](CCCCN)NC(=O)[C@@H](NC(=O)[C@H](CCCN)NC(=O)[C@@H](N)Cc1ccccc1)[C@@H](C)CC)C(C)C)C(N)=O [RP553] (H-F[Orn]IKARF[Orn]VRARL[Orn]LKI-NH2) | 4 (≈ 1.93 µM) | 16 (≈ 7.72 µM) | 8 (≈ 3.86 µM) | 4 (≈ 1.93 µM) | 4 (≈ 1.93 µM) | 8 (≈ 3.86 µM) | 8 (≈ 3.86 µM) | 4 (≈ 1.93 µM) | 4 (≈ 1.93 µM) | 4 (≈ 1.93 µM) | 8 (≈ 3.86 µM) | 4 (≈ 1.93 µM) | 8 (≈ 3.86 µM) | 32 (≈ 15.4 µM) | 64 (≈ 30.9 µM) | 2 (≈ 0.965 µM) | 4 (≈ 1.93 µM) | 64 (≈ 30.9 µM) | 128 (≈ 61.8 µM) | 32 (≈ 15.4 µM) | P. aeruginosa killing (in words) [1]: nearly all; S. aureus killing [2]: 14%; MIC against Candida krusei Y-27803 [23]: 32 µg/mL (≈ 15.4 µM); MIC against Absidia corymbifera NRRL 6251 [24]: 2 µg/mL (≈ 0.965 µM); MIC against Mucor circinelloides NRRL 3631 [25]: 64 µg/mL (≈ 30.9 µM); MIC against E. cloacae 6054 [26]: 2 µg/mL (≈ 0.965 µM); MIC against Fusarium solani NRRL 28548 [27]: 2 µg/mL (≈ 0.965 µM); MIC against Candida parapsilosis Y-1761 [28]: 64 µg/mL (≈ 30.9 µM); MIC against Aspergillus flavus MYA-1004 [29]: 128 µg/mL (≈ 61.8 µM); MIC against Candida albicans Y-6359 [30]: 64 µg/mL (≈ 30.9 µM); MIC against Aspergillus fumigatus 9648 [31]: 128 µg/mL (≈ 61.8 µM) |
| CC[C@H](C)[C@H](NC(=O)[C@H](CCCN)NC(=O)[C@H](C)NC(=O)[C@H](CCCN)NC(=O)[C@H](CC(C)C)NC(=O)[C@H](CCCN)NC(=O)[C@@H](NC(=O)[C@H](CCCN)NC(=O)[C@@H](NC(=O)[C@H](CCCN)NC(=O)[C@H](C)NC(=O)[C@H](CCCN)NC(=O)[C@H](CC(C)C)NC(=O)[C@H](CCCN)NC(=O)[C@@H](N)Cc1ccccc1)[C@@H](C)CC)C(C)C)C(=O)N[C@@H](CCCN)C(=O)N[C@@H](CC(C)C)C(N)=O [RP554] (H-F[Orn]L[Orn]A[Orn]I[Orn]V[Orn]L[Orn]A[Orn]I[Orn]L-NH2) | 4 (≈ 2.12 µM) | 8 (≈ 4.25 µM) | 4 (≈ 2.12 µM) | 16 (≈ 8.49 µM) | 8 (≈ 4.25 µM) | 8 (≈ 4.25 µM) | 8 (≈ 4.25 µM) | 4 (≈ 2.12 µM) | 32 (≈ 17 µM) | 32 (≈ 17 µM) | 32 (≈ 17 µM) | 4 (≈ 2.12 µM) | 32 (≈ 17 µM) | 8 (≈ 4.25 µM) | 32 (≈ 17 µM) | 2 (≈ 1.06 µM) | 4 (≈ 2.12 µM) | 32 (≈ 17 µM) | 32 (≈ 17 µM) | 16 (≈ 8.49 µM) | reduction of CFU/tissue sample [32]: ≥ 2.5 logs; MIC against Candida krusei Y-27803 [23]: 16 µg/mL (≈ 8.49 µM); MIC against Absidia corymbifera NRRL 6251 [24]: 4 µg/mL (≈ 2.12 µM); MIC against Mucor circinelloides NRRL 3631 [25]: 32 µg/mL (≈ 17 µM); MIC against E. cloacae 6054 [26]: 2 µg/mL (≈ 1.06 µM); MIC against Fusarium solani NRRL 28548 [27]: 2 µg/mL (≈ 1.06 µM); MIC against Candida parapsilosis Y-1761 [28]: 16 µg/mL (≈ 8.49 µM); MIC against Aspergillus flavus MYA-1004 [29]: 64 µg/mL (≈ 34 µM); MIC against Candida albicans Y-6359 [30]: 32 µg/mL (≈ 17 µM); MIC against Aspergillus fumigatus 9648 [31]: 64 µg/mL (≈ 34 µM) |

— article PMC7559897, “Designed Antimicrobial Peptides Against Trauma-Related Cutaneous Invasive Fungal Wound Infections” (Journal of Fungi, 2020)
